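Values below derive from 48-hour exposures of cells grown in 96-well plates, with endpoints linearly interpolated between the two concentrations bracketing the appropriate inhibition level. GI50 is the concentration that inhibits growth by half. TGI: total growth inhibition.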
What was measured:
Assay in all cases: NCI tumour cell line growth inhibition, 48 h
[1] = system: 786-0 renal
[2] = system: A498 renal
[3] = system: A549 NSCLC
[4] = system: ACHN renal
[5] = system: BT-549 breast
[6] = system: CAKI-1 renal
[7] = system: CCRF-CEM leukemia
[8] = system: COLO 205 colon
[9] = system: DU-145 prostate
[10] = system: EKVX NSCLC
[11] = system: HCC-2998 colon
[12] = system: HCT-116 colon
[13] = system: HCT-15 colon
[14] = system: HL-60(TB) leukemia
[15] = system: HOP-62 NSCLC
[16] = system: HOP-92 NSCLC
[17] = system: HS 578T breast
[18] = system: HT29 colon
[19] = system: IGROV1 ovarian
[20] = system: K-562 leukemia
[21] = system: KM12 colon
[22] = system: M14 melanoma
[23] = system: MALME-3M melanoma
[24] = system: MCF7 breast
[25] = system: MDA-MB-435
[26] = system: MOLT-4 leukemia
[27] = system: NCI-H23 lung
[28] = system: NCI-H460 lung
[29] = system: NCI-H522 lung
[30] = system: NCI/ADR-RES ovarian
[31] = system: OVCAR-3 ovarian
[32] = system: OVCAR-4 ovarian
[33] = system: OVCAR-5 ovarian
[34] = system: OVCAR-8 ovarian
[35] = system: PC-3 prostate
[36] = system: RPMI-8226 leukemia
[37] = system: RXF 393 renal
[38] = system: SF-268 CNS
[39] = system: SF-295 CNS
[40] = system: SF-539 CNS
[41] = system: SK-MEL-28 melanoma
[42] = system: SK-OV-3 ovarian
[43] = system: SN12C renal
[44] = system: SNB-19 CNS
[45] = system: SW-620 colon
[46] = system: T-47D breast
[47] = system: TK-10 renal
[48] = system: UACC-62 melanoma
[49] = system: UO-31 renal
[50] = system: LOX IMVI melanoma
[51] = system: MDA-MB-231 breast
[52] = system: NCI-H226 lung
[53] = system: SK-MEL-2 melanoma
[54] = system: SK-MEL-5 melanoma
[55] = system: SNB-75 CNS
[56] = system: SR leukemia
[57] = system: U251 CNS
[58] = system: UACC-257 melanoma

COc1ccc(-c2ccc(/C=N/n3c(C)n[nH]c3=S)o2)c([N+](=O)[O-])c1
GI50 [1]: 91.1 µM | TGI [1]: > 100 µM | GI50 [2]: > 100 µM | TGI [2]: > 100 µM | GI50 [3]: > 100 µM | TGI [3]: > 100 µM | GI50 [4]: 93 µM | TGI [4]: > 100 µM | GI50 [5]: > 100 µM | TGI [5]: > 100 µM | GI50 [6]: > 100 µM | TGI [6]: > 100 µM | GI50 [7]: > 100 µM | TGI [7]: > 100 µM | GI50 [8]: > 100 µM | TGI [8]: > 100 µM | GI50 [9]: > 100 µM | TGI [9]: > 100 µM | GI50 [10]: > 100 µM | TGI [10]: > 100 µM | GI50 [11]: > 100 µM | TGI [11]: > 100 µM | GI50 [12]: > 100 µM | TGI [12]: > 100 µM | GI50 [13]: > 100 µM | TGI [13]: > 100 µM | GI50 [14]: > 100 µM | TGI [14]: > 100 µM | GI50 [15]: 46 µM | TGI [15]: > 100 µM | GI50 [16]: 12.4 µM | TGI [16]: 45.4 µM | GI50 [17]: > 100 µM | TGI [17]: > 100 µM | GI50 [18]: > 100 µM | TGI [18]: > 100 µM | GI50 [19]: > 100 µM | TGI [19]: > 100 µM | GI50 [20]: > 100 µM | TGI [20]: > 100 µM | GI50 [21]: > 100 µM | TGI [21]: > 100 µM | GI50 [22]: > 100 µM | TGI [22]: > 100 µM | GI50 [23]: 54.1 µM | TGI [23]: > 100 µM | GI50 [24]: > 100 µM | TGI [24]: > 100 µM | GI50 [25]: > 100 µM | TGI [25]: > 100 µM | GI50 [26]: > 100 µM | TGI [26]: > 100 µM | GI50 [27]: > 100 µM | TGI [27]: > 100 µM | GI50 [28]: > 100 µM | TGI [28]: > 100 µM | GI50 [29]: > 100 µM | TGI [29]: > 100 µM | GI50 [30]: > 100 µM | TGI [30]: > 100 µM | GI50 [31]: > 100 µM | TGI [31]: > 100 µM | GI50 [32]: > 100 µM | TGI [32]: > 100 µM | GI50 [33]: > 100 µM | TGI [33]: > 100 µM | GI50 [34]: 84 µM | TGI [34]: > 100 µM | GI50 [35]: > 100 µM | TGI [35]: > 100 µM | GI50 [36]: > 100 µM | TGI [36]: > 100 µM | GI50 [37]: 32.8 µM | TGI [37]: > 100 µM | GI50 [38]: 47.5 µM | TGI [38]: > 100 µM | GI50 [39]: 36.3 µM | TGI [39]: > 100 µM | GI50 [40]: 39.4 µM | TGI [40]: > 100 µM | GI50 [41]: > 100 µM | TGI [41]: > 100 µM | GI50 [42]: > 100 µM | TGI [42]: > 100 µM | GI50 [43]: > 100 µM | TGI [43]: > 100 µM | GI50 [44]: > 100 µM | TGI [44]: > 100 µM | GI50 [45]: > 100 µM | TGI [45]: > 100 µM | GI50 [46]: > 100 µM | TGI [46]: > 100 µM | GI50 [47]: 69.1 µM | TGI [47]: > 100 µM | GI50 [48]: > 100 µM | TGI [48]: > 100 µM | GI50 [49]: > 100 µM | TGI [49]: > 100 µM

O=[N+]([O-])c1ccc2c(c1)C(c1ccccc1Cl)=Nc1cn[nH]c1N2
GI50 [1]: 11.8 µM | TGI [1]: > 25 µM | GI50 [2]: 8.27 µM | TGI [2]: > 23.3 µM | GI50 [3]: 19.7 µM | TGI [3]: > 25 µM | GI50 [4]: 14.4 µM | TGI [4]: > 25 µM | GI50 [5]: 16.2 µM | TGI [5]: > 25 µM | GI50 [6]: 12.7 µM | TGI [6]: > 25 µM | GI50 [7]: 8 µM | TGI [7]: > 25 µM | GI50 [8]: 9.43 µM | TGI [8]: > 25 µM | GI50 [9]: 20.4 µM | TGI [9]: > 25 µM | GI50 [11]: 24.7 µM | TGI [11]: > 25 µM | GI50 [12]: 11.2 µM | TGI [12]: > 25 µM | GI50 [13]: 15.3 µM | TGI [13]: > 25 µM | GI50 [14]: 14.4 µM | TGI [14]: > 25 µM | GI50 [15]: > 20.7 µM | TGI [15]: > 25 µM | GI50 [17]: 7.76 µM | TGI [17]: > 25 µM | GI50 [18]: 19.2 µM | TGI [18]: > 25 µM | GI50 [19]: > 23.5 µM | TGI [19]: > 25 µM | GI50 [20]: 19 µM | TGI [20]: > 25 µM | GI50 [21]: 12.1 µM | TGI [21]: > 25 µM | GI50 [50]: 18.1 µM | TGI [50]: > 25 µM | GI50 [22]: > 25 µM | TGI [22]: > 25 µM | GI50 [23]: > 25 µM | TGI [23]: > 25 µM | GI50 [24]: 10.9 µM | TGI [24]: > 25 µM | GI50 [51]: 14.6 µM | TGI [51]: > 25 µM | GI50 [25]: 15.1 µM | TGI [25]: > 25 µM | GI50 [26]: 10.5 µM | TGI [26]: > 25 µM | GI50 [52]: 11.8 µM | TGI [52]: > 25 µM | GI50 [27]: > 25 µM | TGI [27]: > 25 µM | GI50 [28]: 16.1 µM | TGI [28]: > 25 µM | GI50 [29]: 15.5 µM | TGI [29]: > 25 µM | GI50 [30]: 23.1 µM | TGI [30]: > 25 µM | GI50 [31]: 14.1 µM | TGI [31]: > 25 µM | GI50 [32]: 12.5 µM | TGI [32]: > 25 µM | GI50 [33]: > 25 µM | TGI [33]: > 25 µM | GI50 [34]: 17.9 µM | TGI [34]: > 25 µM | GI50 [35]: 14.3 µM | TGI [35]: > 25 µM | GI50 [36]: > 24.2 µM | TGI [36]: > 25 µM | GI50 [37]: 4.57 µM | TGI [37]: > 25 µM | GI50 [38]: > 23.9 µM | TGI [38]: > 25 µM | GI50 [39]: 8.48 µM | TGI [39]: > 23.8 µM | GI50 [40]: 14.6 µM | TGI [40]: > 25 µM | GI50 [53]: 10.7 µM | TGI [53]: > 22 µM | GI50 [41]: > 23.7 µM | TGI [41]: > 25 µM | GI50 [54]: 11.3 µM | TGI [54]: > 25 µM | GI50 [42]: 12.5 µM | TGI [42]: > 25 µM | GI50 [43]: 19.8 µM | TGI [43]: > 25 µM | GI50 [44]: > 25 µM | TGI [44]: > 25 µM | GI50 [55]: 618 nM | TGI [55]: > 21.2 µM | GI50 [56]: 15.2 µM | TGI [56]: > 25 µM | GI50 [45]: 15.8 µM | TGI [45]: > 25 µM | GI50 [46]: 14 µM | TGI [46]: > 25 µM | GI50 [47]: 15.5 µM | TGI [47]: > 25 µM | GI50 [57]: 9.91 µM | TGI [57]: > 25 µM | GI50 [58]: > 25 µM | TGI [58]: > 25 µM | GI50 [48]: 16 µM | TGI [48]: > 25 µM | GI50 [49]: 11.1 µM | TGI [49]: > 25 µM
